{"source": "patent US20260103474A1", "about": "“NOVEL COMPOUNDS FOR THE DIAGNOSIS OF TDP-43 PROTEINOPATHIES” (AC IMMUNE SA, priority 2022, published 2026)", "key": {"TDP-43 aggregates": {"target": "TDP-43 aggregates (Homo sapiens, UniProt Q13148)", "sequence (Q13148 whole entry)": "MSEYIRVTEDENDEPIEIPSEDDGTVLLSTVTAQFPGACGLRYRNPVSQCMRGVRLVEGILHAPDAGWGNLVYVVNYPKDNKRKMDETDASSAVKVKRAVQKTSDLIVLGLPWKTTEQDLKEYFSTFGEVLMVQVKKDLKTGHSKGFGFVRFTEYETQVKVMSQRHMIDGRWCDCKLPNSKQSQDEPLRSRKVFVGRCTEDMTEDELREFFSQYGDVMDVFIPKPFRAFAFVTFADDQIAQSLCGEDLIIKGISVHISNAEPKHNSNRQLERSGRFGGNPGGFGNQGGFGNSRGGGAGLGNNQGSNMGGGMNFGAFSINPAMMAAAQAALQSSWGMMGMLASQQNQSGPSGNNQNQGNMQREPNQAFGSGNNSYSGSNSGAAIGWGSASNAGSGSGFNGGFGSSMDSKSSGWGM", "assay": "Micro-autoradiography staining in brain sections from patients with FTD", "format": "binding", "design": "from tissue; host or cells: frozen post-mortem human brain sections (FTLD-TDP type A and type B; non-demented controls in the classical autoradiography)", "details": "120 nM", "method": "All tissues were collected from donors for or from whom a written informed consent for a brain autopsy and the use of the material and clinical information for research purposes had been obtained by the respective brain banks. All samples were anonymized and coded. Frozen brain tissue blocks with confirmed TDP-43 pathology upon autopsy were processed using a cryotome to generate sections of 10 μm in thickness and mounted on glass slides. Sections were kept at −80° C. until use.\nBrain sections were immunostained using a commercially available antibody, specific for phosphorylated serine at amino acid 409/410 (anti-pTDP-43 pS409/410, Biolegend, 829901). Sections were fixed for 15 minutes at 4° C. with 4% formaldehyde (Sigma, 252549) and washed three times for height minutes with 1×PBS (Dulbecco's phosphate buffered saline, Sigma D1408) at room temperature. Next, sections were saturated and permeabilized in blocking buffer (PBS, 10% normal goat serum (NGS), 0.25% Triton X-100) for one hour at room temperature and incubated overnight at 4° C. with primary antibody against pTDP-43 (diluted at 1/500 in PBS, 5% NGS, 0.25% Triton X-100). The following day, sections were washed three times for height minutes with 1×PBS before incubation with a secondary, AlexaFluor633-labeled goat-anti-rat antibody (Invitrogen, A-21094, diluted at 1/500 in PBS) for 45 minutes at room temperature. Following incubation with […] antibodies the sections were washed three times in PBS before being processed further.\nFor micro-autoradiography, tritiated test compound ([^3H]-Compound 1, [^3H]-Compound 9 or [^3H]-Compound 17 respectively) was incubated on the sections at 120 nM in 50 mM Tris buffer pH 7.4 for 45 minutes at room temperature. Sections were then washed as follows: once in ice-cold 50 mM Tris-HCl pH 7.4 buffer for one minute, twice in ice-cold 70% ethanol for one minute, once in ice-cold 50 mM Tris-HCl pH 7.4 buffer for one minute and finally rinsed briefly in ice-cold distilled water. Sections were subsequently dried for one hour under a stream of air and then exposed to Ilford Nuclear Emulsion Type K5 (Agar Scientific, AGP9281) for ten days at 4° C. in a light-proof slide storage box. The sections were developed by immersing them successively in the following solutions: 1.) Ilford Phenisol Developer (1:5 dilution in H2O, Agar Scientific, AGP9106) for four minutes, 2.) Ilfostop solution (1:20 dilution in H2O, Agar Scientific, AGP9104) for two minutes, 3.) Ilford Hypam Fixer (1:5 dilution in H2O, Agar Scientific, AGP9183) for four minutes and finally rinsed with H2O for 10 minutes.\nFor image acquisition, sections were mounted using ProLong Gold Antifade reagent (Invitrogen P36930) and imaged on a Panoramic250 Slide Scanner (3DHistech) with a 40× objective capturing brightfield and fluorescent images separately or on a Panoramic Scan II (3DHistech) with a 20× objective. The Visiopharm image analysis software suite was used to align the fluorescent image with the brightfield image."}, "Tau tangles": {"test_system": "Tau tangles", "assay": "High resolution micro-autoradiography on AD brain sections", "format": "binding, human", "details": "tritiated compound 20 nM", "method": "The protocol was adapted from Marquie et al., 2015. AD sections were incubated with [^3H]-Compound 1, [^3H]-Compound 17 or [^3H]-Tau reference compound at 20 nM for one hour at room temperature (RT). Sections were then washed as follows: One time in ice-cold 50 mM Tris-HCl pH 7.4 buffer for one minute, two times in 70% ice-cold ethanol for one minute, one time in ice-cold 50 mM Tris-HCl pH 7.4 buffer for one minute and finally rinsed briefly in ice-cold distilled water. Sections were subsequently dried and then exposed to Ilford Nuclear Emulsion Type K5 (Agar Scientific, AGP9281) in a light-proof slide storage box. After five days, the sections were developed by immersing them successively in the following solutions: 1.) Ilford Phenisol Developer (1:5 dilution in H2O, Agar Scientific, AGP9106), 2.) Ilfostop solution (1:20 dilution in H2O, Agar Scientific, AGP9104), 3.) Ilford Hypam Fixer (1:5 dilution in H2O, Agar Scientific, AGP9183) and finally rinsed with H2O.\nThioflavin S staining was performed on adjacent sections. For image acquisition, sections were mounted using ProLong Gold Antifade reagent (Invitrogen P36930) and imaged on a Panoramic150 Slide Scanner (3DHistech) with a 20× objective capturing separately brightfield and fluorescent images."}}}
{"smiles": "[3H]c1cncc(N2CCc3nc(-c4cc([3H])c(N5CC[C@@H](F)C5)nc4F)sc3C2=O)c1", "note": "[[^3H]-Compound 1, tritiated 2-[2-fluoro-6-[(3R)-3-fluoropyrrolidin-1-yl]-3-pyridyl]-5-(3-pyridyl)-6,7-dihydrothiazolo[5,4-c]pyridin-4-one]", "values": [{"measurement": "Micro-autoradiography silver grain signal versus pTDP-43 immunostaining", "setting": "TDP-43 aggregates; FTLD-TDP type A brain sections", "result": "colocalization with pTDP-43 aggregates"}, {"measurement": "Micro-autoradiography silver grain signal versus pTDP-43 immunostaining", "setting": "TDP-43 aggregates; FTLD-TDP type B brain sections", "result": "same colocalization was observed"}, {"measurement": "Micro-autoradiography silver grain accumulation on Tau tangles in AD brain sections", "setting": "Tau tangles", "result": "No accumulation of silver grains on Tau tangles"}]}
{"smiles": "[3H]C([3H])(O)C1CCN(c2ccc(-c3nc4c(s3)C(=O)N(c3cccnc3)CC4)c(F)n2)CC1", "note": "[[^3H]-Compound 17, 2-(2-fluoro-6-(4-(hydroxymethyl-t2)piperidin-1-yl)pyridin-3-yl)-5-(pyridin-3-yl)-6,7-dihydrothiazolo[5,4-c]pyridin-4(5H)-one]", "values": [{"measurement": "Micro-autoradiography silver grain signal versus pTDP-43 immunostaining", "setting": "TDP-43 aggregates; FTLD-TDP type A brain sections", "result": "colocalization with pTDP-43 aggregates"}, {"measurement": "Micro-autoradiography silver grain signal versus pTDP-43 immunostaining", "setting": "TDP-43 aggregates; FTLD-TDP type B brain sections", "result": "same colocalization was observed"}, {"measurement": "Micro-autoradiography silver grain accumulation on Tau tangles in AD brain sections", "setting": "Tau tangles", "result": "No accumulation of silver grains on Tau tangles"}]}
